Measured values taken from patent US20210038587A1, “METHODS AND COMPOSITIONS FOR TREATING NON-ERK MAPK PATHWAY INHIBITOR-RESISTANT CANCERS” (BIOMED VALLEY DISCOVERIES, INC., priority 2013, published 2021).
Where two headings read alike, the source gives them in different places.

Legend:
[1] = test system: patient-derived xenograft (AT052C); experiment: Patient-derived xenograft from vemurafenib-refractory BRAFV600E melanoma; type: in vivo, mice
From the text: Tumor fragments were harvested from host animals and implanted into immune-deficient mice.

[2] = test system: A375 xenografts; experiment: A375 xenografts, BVD-523 in combination with dabrafenib; type: in vivo, mice; conditions: 100 mg/kg QD
From the text: (§1) For measurement of antitumor activity in A375 xenografts, xenografts were initiated with A375 cells maintained by serial subcutaneous transplantation in female athymic nude mice. Each test mouse received an A375 tumor fragment (1 mm^3) implanted subcutaneously in the right flank. Once tumors reached target size (80-120 mm^3), animals were randomized into treatment and control groups, and drug treatment was initiated.
(§2) Combination dosing was stopped on Day 20 to monitor for tumor regrowth. Animals were monitored individually and euthanized when each tumor reached an endpoint volume of 2000 mm^3, or the final day (Day 45), whichever came first, and median time to endpoint (TTE) calculated. The combination was also evaluated in an upstaged A375 model where larger tumors in the range 228-1008 mm^3 were evaluated. Here, mice were randomized into 1 group (Group 1) of 14 and 4 groups (Groups 2-5) of 20. […] Tumors were measured twice weekly. Combination dosing was stopped on Day 42 to monitor for tumor regrowth through study end (Day 60). Treatment outcome was determined from % TGD, defined as the percent increase in median TTE for treated versus control mice, with differences between groups analyzed via log rank survival analysis. […] Mice were also monitored for CR and PR responses. Animals with a CR at the end of the study were additionally classified as TFS.

[3] = test system: BRAF^V600-mutant melanoma; conditions: cited from earlier work
[4] = test system: upstaged A375 xenografts; experiment: Upstaged A375 xenograft model, BVD-523 in combination with dabrafenib; type: in vivo, mice; conditions: 50 mg/kg BID; 11 evaluable mice
Description: as §2

[5] = test system: dose-escalated A375 cells; experiment: Proliferation assay (Alamar Blue, 96 h) in dose-escalated A375 cell lines; type: cell-based, human; conditions: for IC50: Homo sapiens; for Fold Change of IC50: BRAFi- + MEKi-resistant versus parental A375
From the text: (§6) Cancer cell lines were maintained in cell culture under standard media and serum conditions. For dose escalation studies, A375 cells were split, grown to about 40-60% confluence, and then treated with the initial dose of the specified drug.
(§7) Cells were then allowed to grow until 70-90% confluence and split. Split ratios were kept as “normal” as possible and reasonably consistent between treatments (e.g. a minimum of 50% of the normal split ratio of the parentals). Medium was refreshed every 3-4 days. When cells again reached about 40-60% confluence, the dose was escalated. In the event that the 40-60% window was missed, the cells were split again and dosed once they reached 40-60% confluence. Again, medium was refreshed every 3-4 days.
(§8) Proliferation assays were used to track changes in sensitivity to the escalated agent(s) at appropriate time intervals (e.g. each month, although the timing is dependent on adequate cell numbers being available). For proliferation assays, cells were seeded in 96-well plates at 3000 cells per well in drug-free DMEM medium containing 10% FBS and allowed to adhere overnight prior to addition of compound or vehicle control. The final DMSO concentration was constant at 0.1%. Test compounds were incubated with the cells for 96 hours at 37° C. and 5% CO2 in a humidified atmosphere. Alamar Blue 10% (v/v) was then added and incubated for 4 hours and fluorescent product was detected using a BMG FLUOstar plate reader. The average media only background value was deducted and the data analyzed using a 4-parameter logistic equation in GraphPad Prism.
(§9) For assessment of drug sensitivity in cell-line models of acquired resistance, drug sensitivity of dose-escalated A375 cells and isogenic RKO cells was assessed in 96-hour proliferation assays. […] For the A375 assays Alamar blue (ThermoFisher) 10% (v/v) was added and incubated for 4 h, and fluorescent product was then detected using a BMG FLUOstar. The average media only background value was deducted and the data analyzed using a 4-parameter logistic equation in GraphPad Prism.
(§10) Cells were allowed to grow until ˜70-90% confluence and split; medium was refreshed every 3-4 days. […] This process was repeated as required.

[6] = test system: A375 cells; experiment: Dose escalation study (acquisition of resistance); type: cell-based, human; conditions: progressively increasing concentrations
From the text: as §6, §7, §10

[7] = test system: SW48 cell lines heterozygous for knock-in of mutant KRAS; experiment: Proliferation assay in isogenic SW48 lines with knock-in of mutant KRAS (Alamar blue, 96 h); type: cell-based; conditions: versus control SW48
Description: Isogenic SW48 cell lines heterozygous for knock-in of mutant KRAS (De Roock et al 2010, JAMA, 304, 1812-1820) were obtained from Horizon Discovery (Catalogue numbers; HD 103-002, HD 103-006 HD 103-007, HD 103-009, HD 103-010, HD 103-011, HD 103-013). […] Viability was then assessed using Alamar blue.

[8] = test system: RKO Parental; experiment: Single agent proliferation assay (CellTiter-Glo, 96 h); type: cell-based
Description: (§3) For assessment of drug sensitivity in cell-line models of acquired resistance, drug sensitivity of dose-escalated A375 cells and isogenic RKO cells was assessed in 96-hour proliferation assays. […] For the A375 assays Alamar blue (ThermoFisher) 10% (v/v) was added and incubated for 4 h, and fluorescent product was then detected using a BMG FLUOstar.
(§4) Compounds were prepared from DMSO stocks to give the desired final concentrations. The final DMSO concentration was constant at 0.1%. […] CellTiter-Glo® reagent (Promega, Madison, Wis.) was added according to manufacturer's instructions and luminescence detected using the BMG FLUOstar plate reader (BMG Labtech, Ortenberg, Germany).

[9] = test system: RKO MEK1 (Q56P/+) Clone 2; experiment: as above; type: cell-based; conditions: RKO MEK1 Q56P/+ Cl.2
Description: as §3
(§5) RKO MEK1 Q56P Isogenic cells were produced by Horizon Discovery (Cambridge, UK; #HD 106-019) using a recombinant AAV-mediated gene targeting strategy. Briefly, rAAV virus was generated following transfection of the appropriate targeting vector and helper vectors in HEK293T cells, purified using an AAV purification kit (Virapur, San Diego, USA) and titrated using qPCR. Parental homozygous RKO cells (homozygous wild type for MEK1) were then infected with rAAV virus and clones that had integrated the selection cassette were identified by G418 selection and expanded. Correctly targeted clones that were heterozygous for knock-in of the MEK1 Q56P point mutation into a single allele were identified by PCR and sequencing.
as §4

[10] = test system: RKO MEK1 (Q56P/+) Clone 1; experiment: as above; type: cell-based; conditions: RKO MEK1 Q56P/+ Cl.1
Description: as §3, §5, §4

[11] = test system: A375 cells; experiment: Proliferation assay (Alamar Blue, 96 h) in parental A375 cells; type: cell-based; conditions: Homo sapiens, A-375, Parental A375
Description: as §8, §9

[12] = test system: A375 xenografts; experiment: Antitumor activity in A375 xenografts, monotherapy; type: in vivo, mice
Description: as §1
Oral temozolomide was administered as a positive reference compound at 75 or 175 mg/kg once daily (QD) for a total of five treatments (QD×5).

[13] = A-375, BRAFi- + MEKi-resistant (dabrafenib and trametinib combination-resistant) A375 population, read-out: IC50
[14] = A-375, Month 1, Dab/Tram-escalated line, read-out: Relative IC50
[15] = A-375, Month 1, Tram/523-escalated line, read-out: Relative IC50
[16] = A-375, Month 2, Dab/Tram-escalated line, read-out: Relative IC50
[17] = A-375, Month 2, Tram/523-escalated line, read-out: Relative IC50
[18] = A-375, Month 3, Dab/Tram-escalated line, read-out: Relative IC50
[19] = A-375, Month 3, Tram/523-escalated line, read-out: Relative IC50

Question: With CC(C)(C)c1nc(-c2cccc(NS(=O)(=O)c3c(F)cccc3F)c2F)c(-c2ccnc(N)n2)s1 [Dabrafenib] as the compound, how does the TGI ([1]; 50 mg/kg BID) read?
Answer: 22%

Question: And the “activity in patient-derived line ST052C” value ([1]; dabrafenib 50 mg/kg BID, BVD-523 100 mg/kg BID)?
Answer: acquired cross-resistance

Question: And the PR [2]?
Answer: 1

Question: What about the overall survival ([3]; Long et al. 2015, BRAF^V600E/K) of the same compound?
Answer: 18.7 months

Question: What about the overall response ([3]; Long et al. 2015) of the same compound?
Answer: 53%

Question: And the “progression-free survival (PFS)” value ([3]; Long et al. 2015)?
Answer: 8.8 months

Question: And the response rate ([3]; phase III, single agent versus dacarbazine)?
Answer: approximately 50%

Question: And the CRs [4]?
Answer: 5

Question: What about the PRs [4] of the same compound?
Answer: 5

Question: What about the TFS [4] of the same compound?
Answer: 3

Question: What about the IC50 ([5]; A-375, BRAFi- + MEKi-resistant (dabrafenib and trametinib combination-resistant) A375 population) of the same compound?
Answer: 17.9 nM

Question: What about the IC50 ([5]; A-375, read-out: Relative IC50, Month 1, BVD-523-escalated line) of the same compound?
Answer: 8 nM

Question: What about the IC50 ([5]; A-375, read-out: Relative IC50, Month 1, Dab/523-escalated line) of the same compound?
Answer: 68 nM

Question: What about the IC50 ([5]; A-375, read-out: Relative IC50, Month 1, Dab/Tram-escalated line) of the same compound?
Answer: 58 nM

Question: And the IC50 ([5]; A-375, read-out: Relative IC50, Month 1, Tram-escalated line)?
Answer: 29 nM

Question: And the IC50 ([5]; A-375, read-out: Relative IC50, Month 1, Tram/523-escalated line)?
Answer: 11 nM

Question: What about the IC50 ([5]; A-375, read-out: Relative IC50, Month 2, BVD-523-escalated line) of the same compound?
Answer: 697 nM

Question: And the IC50 ([5]; A-375, read-out: Relative IC50, Month 2, Dab-escalated line)?
Answer: 11.5 nM

Question: And the IC50 ([5]; A-375, read-out: Relative IC50, Month 2, Dab/523-escalated line)?
Answer: 218 nM

Question: And the IC50 ([5]; A-375, read-out: Relative IC50, Month 2, Dab/Tram-escalated line)?
Answer: 256 nM

Question: And the IC50 ([5]; A-375, read-out: Relative IC50, Month 2, Tram/523-escalated line)?
Answer: 68 nM

Question: What about the IC50 ([5]; A-375, read-out: Relative IC50, Month 3, BVD-523-escalated line) of the same compound?
Answer: 18.4 nM

Question: And the IC50 ([5]; A-375, read-out: Relative IC50, Month 3, Dab-escalated line)?
Answer: 2.5 nM

Question: And the IC50 ([5]; A-375, read-out: Relative IC50, Month 3, Dab/523-escalated line)?
Answer: 337 nM

Question: And the IC50 ([5]; A-375, read-out: Relative IC50, Month 3, Dab/Tram-escalated line)?
Answer: 17.9 nM

Question: What about the IC50 ([5]; A-375, read-out: Relative IC50, Month 3, Tram/523-escalated line) of the same compound?
Answer: 73 nM

Question: What about the “emergence of drug-resistant cell lines” value [6] of the same compound?
Answer: readily obtained

Question: For CC(=O)O[C@H]1C(=O)[C@@]2(C)[C@H]([C@H](OC(=O)c3ccccc3)[C@]3(O)C[C@H](OC(=O)[C@H](O)[C@@H](NC(=O)c4ccccc4)c4ccccc4)C(C)=C1C3(C)C)[C@]1(OC(C)=O)CO[C@@H]1C[C@@H]2O [Paclitaxel], which “sensitivity after knock-in of KRAS mutant alleles” value [7] is on record?
Answer: unaltered

Question: And the IC50 [8]?
Answer: 2 nM

Question: And the IC50 [9]?
Answer: 2 nM

Question: What about the IC50 [10] of the same compound?
Answer: 2 nM

Question: What about the IC50 [11] of the same compound?
Answer: 1.9 nM

Question: And the “Fold Change of IC50” value [5]?
Answer: +1.8 fold

Question: And the IC50 [5, 13]?
Answer: 3.5 nM

Question: And the IC50 [5, 14]?
Answer: 3.5 nM

Question: What about the IC50 [5, 15] of the same compound?
Answer: 3.4 nM

Question: What about the IC50 [5, 16] of the same compound?
Answer: 4.7 nM

Question: And the IC50 [5, 17]?
Answer: 8.9 nM

Question: And the IC50 [5, 18]?
Answer: 4.7 nM

Question: And the IC50 [5, 19]?
Answer: 8.9 nM

Question: With CC(=O)Nc1cccc(-n2c(=O)n(C3CC3)c(=O)c3c(Nc4ccc(I)cc4F)n(C)c(=O)c(C)c32)c1 [Trametinib] as the compound, how does the IC50 [8] read?
Answer: 6 nM

Question: And the IC50 [9]?
Answer: 80 nM

Question: And the IC50 [10]?
Answer: 93 nM

Question: And the IC50 [11]?
Answer: 0.2 nM

Question: What about the “Fold Change of IC50” value [5] of the same compound?
Answer: +13.5 fold

Question: And the “Fold Change of IC50” value ([5]; listed as trametinib)?
Answer: 13.5 fold

Question: What about the IC50 [5, 13] of the same compound?
Answer: 2.7 nM

Question: What about the IC50 [5, 14] of the same compound?
Answer: 3.9 nM

Question: What about the IC50 [5, 15] of the same compound?
Answer: 2.5 nM

Question: What about the IC50 [5, 16] of the same compound?
Answer: 12.6 nM

Question: What about the IC50 [5, 17] of the same compound?
Answer: 4.6 nM

Question: What about the IC50 [5, 18] of the same compound?
Answer: 2.7 nM

Question: And the IC50 [5, 19]?
Answer: 11.2 nM

Question: For Cn1nnc2c(C(N)=O)ncn2c1=O [temozolomide], which “tumor growth inhibition (TGI)” value ([12]; 75 mg/kg QD×5) is on record?
Answer: 34%

Question: And the “tumor growth inhibition (TGI)” value ([12]; 175 mg/kg QD×5)?
Answer: 78%
